Experimental data reported in article PMC9853869, “The Myxobacterial Antibiotic Myxovalargin: Biosynthesis, Structural Revision, Total Synthesis, and Molecular Characterization of Ribosomal Inhibition” (Journal of the American Chemical Society, 2023).
*1 amine or outer side, *2 acyl side, *3 side chain or, on linkers, in order; H or OH if unused. Where a SMILES comes first, the peptide text is derived from it. [ ]: non-standard residue; d: D form. The star is where a group is joined. X1 = O=C(C[C@H](N[*:1])c1ccc(O)cc1)[*:2]; dVal(3-OH) = CC(C)(O)[C@@H](N)C(=O)O; ΔIle(E) = CC/C(C)=C(/N)C(=O)O; Isovaleryl = CC(C)CC(=O)*; Agmatine = N=C(N)NCCCCN*; NMeA = CN[C@@H](C)C(=O)O; ΔVal = CC(C)=C(N)C(=O)O

Legend:
[1] = test system: M. tuberculosis; format: cell-based, Mycobacterium tuberculosis
[2] = test system: M. tuberculosis MXV-SRM69 (rrl: t2847c, rrl: t2849g, Rv2935/ppsE: G146*); details: MXV-SRM69 (rrl: t2847c, rrl: t2849g, Rv2935/ppsE: G146*, 4 h)

SMILES: CC/C(C)=C(/NC(=O)[C@H](NC(=O)[C@@H](NC(=O)[C@@H](CCCNC(=N)N)NC(=O)C(NC(=O)[C@H](NC(=O)C[C@H](NC(=O)[C@H](NC(=O)[C@H](NC(=O)[C@H](C)N(C)C(=O)[C@H](C)NC(=O)C(NC(=O)CC(C)C)=C(C)C)C(C)C)C(C)C)c1ccc(O)cc1)C(C)C)=C(C)C)C(C)C)C(C)C)C(=O)N[C@H](C)C(=O)N[C@@H](C(=O)NCCCCNC(=N)N)C(C)(C)O [MyxA, Myxovalargin A] (Isovaleryl-[ΔVal]A[NMeA][dV][dV][X1][dV][ΔVal][dR]V[dV][ΔIle(E)][dA][dVal(3-OH)]-Agmatine)
- MIC shift of resistant mutant strains [1]: > 40 fold
- frequency of spontaneous resistance mutants [1]: ~6 × 10^–7
- MIC [2]: >210 mg/L
